Patent US20240423964A1, “METHODS AND COMPOSITIONS FOR IMPROVING NEUROMUSCULAR JUNCTION MORPHOLOGY AND FUNCTION” (The Board of Trustees of the Leland Stanford Junior …, priority 2021, published 2024)
Entries after “also recorded” stand apart in the source; their conditions may differ.

Key:
aged mice [1] = assay: NMJ morphology in EDL muscles of aged mice (whole-mount staining, confocal microscopy); assay type: in vivo, mouse
Description: (§1) Mice were treated for 1 month once a day intraperitoneally with 5 mg/kg of SW033291 (SW) or vehicle (10% ethanol, 5% Cremophor EL, and 85% D5W (5% (wt/v) dextrose in water, Tables 3 and 4)) as previously described (2). Vehicle and SW treatments were performed in seven independent experiments for aging studies that included young and aged vehicle- and SW-treated groups. Mice were randomized based on their body weight into vehicle-treated control and SW-treated experimental groups prior to the start of injections. A full-body necropsy was performed on all mice at the experimental endpoint and mice that developed tumors were excluded from the study.
Extensor digitorum longus (EDL) and soleus muscles were dissected and fixed in 4% PFA in PBS for 30 minutes at room temperature. Muscles were washed in PBS extensively and stored in PBS with 0.01% sodium azide (Sigma. S2002) at 4 C until processed. For whole-mount staining, EDLs were separated using the distal tendon into 4 pieces to make thinner sheets of muscles for staining. The proximal and distal tendons of either soleus or EDL pieces were removed to allow for teasing thin bundles of muscle fibers using fine forceps under a stereomicroscope. Care was given in handling tissues to avoid touching the end plate band with forceps tips. Next, myofiber bundles were incubated in PBS-T (0.3% Triton X-100 in PBS) for 1 hour and were blocked in blocking solution (5% goat serum and 0.3% Triton X-100 in PBS) supplemented with 1:50 dilution of goat anti-mouse IgG (Jackson ImmunoResearch, 115-007-003) and IgM (Jackson ImmunoResearch, 115-007-020) for 1 hour at room temperature. Tissues were then incubated with a primary antibody mix against neurofilament and synaptic vesicle (2H3 and SV, DSHB) at 5 μg/ml for a minimum of 24 hours at 4 C with gentle shaking. Tissues were then rinsed with PBS-T and incubated with a secondary antibody mix (goat anti-mouse IgG1-Cy™3, Bungarotoxin-AF™647, and Hoechst 33342) diluted in blocking solution overnight at 4° C. with gentle shaking. Tissues were washed extensively with PBS and mounted in Fluoromount-G™ mounting medium (Southern Biotech, 0100-01) and left overnight to equilibrate prior to confocal microscopy.
(§2) Confocal images were acquired on a Marianas spinning disk confocal (SDC) microscopy with Intelligent Imaging Innovations software using a 20×/NA 0.75 or an oil immersion 40×/NA 0.9 objective to capture multiple focal planes at a step size of 1 μm. Images acquired using the 20× objective were analyzed to score denervation, axonal swelling, and fragmentation of AChRs. Images acquired with the oil immersion 40× objective were analyzed to quantity NMJ-associated endolysosomal vesicles stained with α-bungarotoxin-AF647. Maximum intensity projection images were created from confocal slices using NIH ImageJ software. Data acquisition and NMJ scoring were performed by two researchers blinded to treatment conditions.

aged mice [2] = assay: Aged mice treated systemically with SW033291 for one month: muscle PGE2 levels, muscle mass and force; assay type: in vivo, mouse; details: systemic treatment for one month
Description: The prostaglandin E2 catabolizing enzyme, 15-hydroxyprostaglandin dehydrogenase (15-PGDH), is a pivotal regulator of muscle aging and that its inhibition leads to a marked increase in muscle mass and strength in aged mice^1. 15-PGDH is a nicotinamide adenine dinucleotide (NAD+) dependent enzyme that increases with aging in muscle and catabolizes PGE2. FIGS. 1A-1B show increased 15-PGDH activity along with PGE2 levels, and these are reduced in aged mouse muscle. […] Strikingly, overexpression of 15-PGDH in young mouse muscles leads to loss of muscle mass and strength after just one month^1. […]
Plantar flexion peak isometric torque (N·mm) was measured in mice as described previously (2, 42, 43). […] Data were analyzed using Aurora Scientific Dynamic Muscle Analysis Software Suite. Force was measured longitudinally in mice undergoing unilateral sciatic nerve crush injury on days 3, 7, and 14 post-injury. Peak tetanic force generated by contralateral uninjured legs was measured in all experimental mice at all time points.
Prostaglandins, PGE2, PGD2, and PGF2a, and PGE2 metabolites, 15-keto PGE2 and 13,14-dihydro-15-keto PGE2 (PGEM), were measured as described previously (2). Briefly, tissues were snap frozen in liquid nitrogen upon dissection and were kept for no more than 2 weeks in −80° C. freezer before processing for prostaglandin quantification using LC-MS/MS. […]

[3] = test system: mice undergoing unilateral sciatic nerve crush; assay: Sciatic nerve crush: NMJ denervation in ipsilateral EDL muscles (immunofluorescence); assay type: in vivo, mouse; details: 14 dpi, daily intraperitoneal treatment, compared to vehicle-treated controls
Description: (§3) Nerve injury was induced as described below. Mice were treated with SW or vehicle as control intraperitoneally once daily for 14 days post-injury as described above.
The sciatic nerve crush surgery was adopted from the protocol described previously by Bauder and Ferguson (41). The crush surgery was performed as described above with the following modifications. After locating the sciatic nerve, the nerve was mobilized gently with sharp sticks for easy access with hemostatic forceps (Fine Science Tools, 13020-12). Next, the nerve was gently placed on the bottom jaw of the forceps and was crushed for 15 seconds at 3 clicks of the forceps (first location of the locking handle). The incision was closed using 7 mm autoclaved reflex clips (World Precision Instruments, 500344; Applier: 500345). Mice were monitored for recovery from anesthesia and then returned to their home cages. […]
as §2, with “Maximum intensity projection images were created from confocal slices using NIH ImageJ software. Data acquisition and NMJ scoring were performed by two researchers blinded to treatment conditions.” left out

aged mice [4] = assay: Electron microscopy of motor neuron-associated mitochondria in EDL axons of aged mice; assay type: in vivo, mouse; details: one month of treatment, listed as SW
Description: as §1
Extensor digitorum longus (EDL) muscles were dissected and pinned by proximal and distal tendons to the bottom of a petri-dish coated with silicone rubber. Tissues fixed in 2% Glutaraldehyde (Electron Microscopy Sciences, 16000) and 4% paraformaldehyde (Electron Microscopy Sciences, 15700) in 0.1M sodium cacodylate (Electron Microscopy Sciences, 12300) pH 7.4 for 24 hours. Tissues were then transferred from petri-dishes to microcentrifuge tubes with 1% Osmium tetroxide (Electron Microscopy Sciences, 19100) and were kept at room temperature for 1 hour with gentle rotation. […] Images were quantified by an individual blinded to experimental conditions in ImageJ.

aged mice [5] = assay: Motor neuron apoptosis: cleaved caspase-3 in ChAT+ neurons of the lumbar spinal cord of aged mice; assay type: in vivo, mouse; details: ChAT+ neurons in ventral horn of lumbar spinal cord
Description: as §1
Spinal cords were harvested as previously described using hydraulic extrusion of the entire intact spinal cord. Briefly, mice were euthanized with carbon dioxide and decapitated using scissors caudally to the brain stem. The spinal columns were severed just caudal to the sacral spinal cord. A blunt 25-gauge syringe containing ice-cold PBS was inserted into the caudal end of the spinal cord to hydraulicly extrude the entire cord in a petri0dish with ice-cold PBS. The lumbar region was identified under a stereomicroscope, dissected with a sharp blade, and fixed overnight at 4 C in 4% PFA in phosphate buffer. Fixed lumbar spinal cords were embedded in O.C.T. and were frozen in liquid-nitrogen-cooled isopentane. […]

15-PGDH = 15-PGDH (Mus musculus, UniProt Q8VCC1); details: in vivo; cited from earlier work
Chain of 15-PGDH (Q8VCC1 whole entry): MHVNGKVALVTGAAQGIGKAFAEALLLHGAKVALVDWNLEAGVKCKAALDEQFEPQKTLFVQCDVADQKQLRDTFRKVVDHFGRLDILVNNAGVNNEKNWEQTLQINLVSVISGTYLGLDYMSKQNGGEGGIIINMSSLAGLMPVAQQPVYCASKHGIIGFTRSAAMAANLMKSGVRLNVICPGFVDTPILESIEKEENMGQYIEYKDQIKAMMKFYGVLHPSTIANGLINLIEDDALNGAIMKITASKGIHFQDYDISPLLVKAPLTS

[6] = test system: mice undergoing unilateral sciatic nerve crush; assay: Sciatic nerve crush: body weight and gastrocnemius/soleus muscle weight; assay type: in vivo, mouse
Description: as §3
(§4) The sciatic nerve crush surgery was adopted from the protocol described previously by Bauder and Ferguson (41). The crush surgery was performed as described above with the following modifications. After locating the sciatic nerve, the nerve was mobilized gently with sharp sticks for easy access with hemostatic forceps (Fine Science Tools, 13020-12). Next, the nerve was gently placed on the bottom jaw of the forceps and was crushed for 15 seconds at 3 clicks of the forceps (first location of the locking handle). The incision was closed using 7 mm autoclaved reflex clips (World Precision Instruments, 500344; Applier: 500345). Mice were monitored for recovery from anesthesia and then returned to their home cages.

[7] = test system: mice undergoing unilateral sciatic nerve crush; assay: Sciatic nerve crush: plantar flexion tetanic force by nerve stimulation; assay type: in vivo, mouse
Description: as §3, §4
Plantar flexion peak isometric torque (N·mm) was measured in mice as described previously (2, 42, 43). Briefly, mice were anesthetized with 3% isoflurane mixed with oxygen and legs were shaved from ankle to hip to allow for reproducible access to the tibial nerve. The foot was taped to a footplate attached to a servomotor (Aurora Scientific, 300C-LR) and the knee joint was secured to a fixed steel post. Contractions were elicited by percutaneous electrical stimulation of the tibial nerve by inserting two Pt—Ir electrode needles (Aurora Scientific) posterior to the knee joint. The peak isometric torque was achieved by injecting 0.4 mA current to the tibial nerve at a frequency of 150 Hz and 0.1 ms square wave pulse. Three tetanic measurements were performed on each muscle, with 1 minute recovery between each measurement, and chose the highest value. Force measurement acquisition was blinded and the researcher performing the force measurements was unaware of treatment conditions. Data were analyzed using Aurora Scientific Dynamic Muscle Analysis Software Suite. Force was measured longitudinally in mice undergoing unilateral sciatic nerve crush injury on days 3, 7, and 14 post-injury. Peak tetanic force generated by contralateral uninjured legs was measured in all experimental mice at all time points.

[8] = aged mice, one month of intraperitoneal administration
[9] = geriatric mice (>26 months), one month once daily i.p., EDL

CCCC[S+]([O-])c1sc2nc(-c3cccs3)cc(-c3ccccc3)c2c1N (centres unmarked) [SW033291, 2-(butylsulfinyl)-4-phenyl-6-(thiophen-2-yl)thieno[2,3-b]pyridin-3-amine]
morphology of the AChRs (aged mice [1]; [8]): improves, enhances, and/or rejuvenates the intact morphology of the AChRs | number of AChR rich endo/lysosomal vesicles (aged mice [1]; [8]): striking reduction | number of AChR rich endo/lysosomal vesicles (aged mice [1]; aged mice, one month of intraperitoneal administration, listed as SW): reduces | aged NMJ morphology (aged mice [1]; [9]): improved, enhanced, and/or rejuvenated to branched and pretzel-like structures found in young EDLs | incidence of AChR fragmentation (aged mice [1]; [9]): significantly reduced | incidence of motor neuron axonal swelling (aged mice [1]; [9]): significantly reduced | rate of denervation in aged EDLs (aged mice [1]; geriatric mice (>26 months), one month once daily i.p., mean±S.E.M.): 12.4±2.9 | increase in muscle mass and force (aged mice [2]): 15-20% | muscle PGE2 levels (aged mice [2]): to the physiological levels measured in young mice | denervation rates in EDLs ipsilateral to the nerve crush [3]: significantly reduced | mitochondrial morphology in motor neurons (distal axons / heavily myelinated axons of EDL) (aged mice [4]): improvement, enhancement, and/or rejuvenation of mitochondrial morphology; also recorded: improved, enhanced, and/or rejuvenated to compact circular mitochondria morphology resembling that seen in young | activated caspase-3 in aged lumbar motor neurons (apoptosis) (aged mice [5]): lower levels | catabolic regulators of muscle atrophy such as atrogenes, ubiquitin ligases MuRF1 (Trim63) and Fbxo32, and TGF-beta signaling (15-PGDH): reduction | muscle mass in injured legs ([6]; 14 dpi, gastrocnemius and soleus): significant increase | muscle weight of the contralateral control legs, difference between vehicle and SW treatment ([6]; contralateral control legs, 14 days post nerve crush): No differences | animals body weight, difference between vehicle and SW treatment ([6]; nerve crush model): No differences | tetanic plantar flexor force in the injured leg, difference between vehicle and SW ([7]; 3 dpi until 7 dpi): no differences between the experimental groups | plantar flexion force of the contralateral (uninjured) legs, difference between vehicle and SW ([7]; contralateral control legs, listed as SW): no significant differences | increase in specific force (force normalized to gastrocnemius and soleus weight) ([7]; mean±S.D., compared to vehicle-treated control mice, 14 days post nerve crush): 52±10% | increase in plantar flexion force generation in injured legs ([7]; mean±S.D., daily intraperitoneal treatment after nerve crush): 69±8%
